Experimental data from ChEMBL document CHEMBL4613324, “Design, Synthesis, and Evaluation of a Series of Novel Super Long-Acting DPP-4 Inhibitors for the Treatment of Type 2 Diabetes” (J Med Chem, 2020).
Calls of active or inactive are those of the source. The calls are words filed in the database; no cut-off is given here.

Key:
[1] = Half life in ICR mouse at 2 mg/kg, po measured after 0.0833 to 120 hrs by LC-MS-MS analysis; format: ADME, organism-based; conditions: in vivo
[2] = Cmax in ICR mouse at 2 mg/kg, po measured after 0.0833 to 120 hrs by LC-MS-MS analysis; format: ADME, organism-based; set-up: dose 2 mg/kg, route oral; conditions: in vivo
[3] = AUC (0 to t) in ICR mouse at 2 mg/kg, po measured after 0.0833 to 120 hrs by LC-MS-MS analysis; format: ADME, organism-based; set-up: time upper 120 hr, time lower 0.083 hr, dose 2 mg/kg, route oral; conditions: in vivo
[4] = Clearance in ICR mouse at 0.5 mg/kg, iv measured after 0.0833 to 120 hrs by LC-MS-MS analysis; format: ADME, organism-based; conditions: in vivo
[5] = Intrinsic clearance in mouse liver microsomes at 0.5 uM incubated for 0.5 to 60 mins by LC-MS/MS analysis; format: ADME, Microsome; conditions: read-out: CLH
[6] = Volume of distribution at steady state in ICR mouse at 0.5 mg/kg, iv measured after 0.0833 to 120 hrs by LC-MS-MS analysis; format: ADME, organism-based; conditions: in vivo, read-out: Vdss
[7] = Oral bioavailability in ICR mouse at 2 mg/kg measured after 0.0833 to 120 hrs by LC-MS-MS analysis; format: ADME, organism-based; conditions: in vivo
[8] = Half life in ICR mouse at 0.5 mg/kg, iv measured after 0.0833 to 120 hrs by LC-MS-MS analysis; format: ADME, organism-based; conditions: in vivo
[9] = biological target: Dipeptidyl peptidase 4 (Mus musculus) (UniProt P28843); assay: Ex-vivo inhibition of DPP4 in plasma isolated from ob/ob mouse treated at 30 mg/kg, po measured after 2 to 72 hrs by fluorescence based assay; format: functional, organism-based
[10] = tested on: Mus musculus; assay: Antidiabetic activity in ob/ob mouse assessed as reduction in decrease in HbA1c level at 30 mg/kg, po dosed once every three days for 31 day relative to control; format: functional; set-up: scale not given: the % may be the effect or the level left
[11] = tested on: Mus musculus; assay: Antidiabetic activity in ob/ob mouse assessed as reduction in random blood glucose levels at 30 mg/kg, po dosed once every three days for 31 days; format: functional, organism-based
[12] = Toxicity in ob/ob mouse assessed as induction of body weight gain at 30 mg/kg, po dosed once every three days for 31 days; format: organism-based; conditions: in vivo, 744 h
[13] = tested on: Mus musculus; assay: Antidiabetic activity in ob/ob mouse assessed as reduction in decrease in HbA1c level at 3 to 30 mg/kg, po dosed once every three days for 31 day; format: functional, organism-based
[14] = biological target: Dipeptidyl peptidase 4 (Mus musculus) (UniProt P28843); assay: Ex-vivo inhibition of DPP4 in plasma isolated from ob/ob mouse assessed as time duration during which DPP4 inhibition rate stays above 80% treated at 30 mg/kg, po measured after 2 to 72 hrs by fluorescence based assay; format: functional, organism-based

Sequence of Dipeptidyl peptidase 4 (Mus musculus) (P28843 whole entry, looked up): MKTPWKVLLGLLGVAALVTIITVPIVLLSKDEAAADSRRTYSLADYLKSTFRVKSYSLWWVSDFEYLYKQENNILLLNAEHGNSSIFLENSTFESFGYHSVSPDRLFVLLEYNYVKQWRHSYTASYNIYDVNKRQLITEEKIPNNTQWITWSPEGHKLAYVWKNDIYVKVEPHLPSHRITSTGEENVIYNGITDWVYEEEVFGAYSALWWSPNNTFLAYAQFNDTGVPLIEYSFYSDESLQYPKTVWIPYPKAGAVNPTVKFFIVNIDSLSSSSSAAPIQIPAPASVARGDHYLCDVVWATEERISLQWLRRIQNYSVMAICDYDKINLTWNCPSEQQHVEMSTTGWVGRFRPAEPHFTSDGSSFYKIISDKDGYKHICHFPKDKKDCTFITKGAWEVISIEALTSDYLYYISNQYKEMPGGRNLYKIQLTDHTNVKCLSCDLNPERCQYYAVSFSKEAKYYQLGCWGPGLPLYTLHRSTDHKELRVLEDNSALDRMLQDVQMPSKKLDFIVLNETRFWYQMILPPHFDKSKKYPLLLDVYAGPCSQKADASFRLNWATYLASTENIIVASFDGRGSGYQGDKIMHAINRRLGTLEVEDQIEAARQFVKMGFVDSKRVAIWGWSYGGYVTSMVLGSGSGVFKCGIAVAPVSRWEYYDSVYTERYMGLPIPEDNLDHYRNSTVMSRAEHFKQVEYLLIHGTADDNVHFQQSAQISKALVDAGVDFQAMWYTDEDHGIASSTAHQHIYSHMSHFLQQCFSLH

CS(=O)(=O)n1cc2c(n1)CN([C@H]1CO[C@H](c3cc(F)ccc3F)[C@@H](N)[C@H]1F)C2
half-life [1]: 19.2 h
Cmax [2]: 1580 ng/mL
AUC(0-t) [3]: 23500 ng·h/mL
clearance [4]: 0.645 mL/min/kg
microsomal CLint at 0.5 µM [5]: 1.2 µL/min/mg
Vd [6]: 0.957 L/kg
bioavailability [7]: 45.4%
half-life [8]: 20.9 h

CS(=O)(=O)n1cc2c(n1)CN([C@@H]1C[C@H](N)[C@@H](c3cc(F)c(F)cc3F)O[C@@H]1C(F)(F)F)C2
half-life [1]: 20 h
Cmax [2]: 999 ng/mL
AUC(0-t) [3]: 26500 ng·h/mL
clearance [4]: 1.44 mL/min/kg
microsomal CLint at 0.5 µM [5]: 1.17 µL/min/mg
Vd [6]: 2.27 L/kg
bioavailability [7]: 114%
half-life [8]: 19.7 h

CS(=O)(=O)n1cc2c(n1)CN([C@H]1CO[C@H](c3cc(F)ccc3F)[C@@H](N)C1)C2 [OMARIGLIPTIN]
half-life [1]: 4.65 h
inhibition [9]: Active
Cmax [2]: 798 ng/mL
AUC(0-t) [3]: 4100 ng·h/mL
clearance [4]: 7.39 mL/min/kg
Activity [10]: 13.6%
Activity [11]: Active
Activity [12]: Toxic
microsomal CLint at 0.5 µM [5]: 1.89 µL/min/mg
Activity [13]: Active
Vd [6]: 1.65 L/kg
TIME [14]: 18 h
bioavailability [7]: 95%
half-life [8]: 3.05 h
